Measurements taken from ChEMBL document CHEMBL5335833, “Asperustins A-J: Austocystins with Immunosuppressive and Cytotoxic Activities from Aspergillus ustus NRRL 5856” (J Nat Prod, 2024).

Assays:
Splenocyte [1] = assay: Immunosuppressive activity in BALB/c mouse splenocytes assessed as reduction in ConA-induced mouse T-lymphocytes proliferation; type: functional, cell-based
Splenocyte [2] = assay: Immunosuppressive activity in BALB/c mouse splenocytes assessed as reduction in […]-induced mouse B-lymphocyte proliferation; type: functional, cell-based
Splenocyte [3] = assay: Immunosuppressive activity in LPS-induced BALB/c mouse splenocyte assessed as reduction in IL-6 cytokine level incubated for 48 hrs by ELISA assay; type: functional, cell-based; settings: dose 0.2-5 µM
MCF7 = assay: Cytotoxicity against human MCF7 cells; type: functional, cell-based
[4] = Cytotoxicity against mouse T-lymphocytes; type: toxicity, cell-based, T-cell
[5] = Cytotoxicity against mouse B-lymphocytes; type: toxicity, cell-based, B-cell
[6] = Selectivity index, ratio of CC50 for cytotoxicity against mouse T lymphocytes to IC50 for Immunosuppressive activity in BALB/c mouse splenocytes assessed as reduction in ConA-induced mouse T-lymphocytes proliferation; type: toxicity, cell-based
[7] = Selectivity index, ratio of CC50 for cytotoxicity against mouse T lymphocytes to IC50 for Immunosuppressive activity in BALB/c mouse splenocytes assessed as reduction in […]-induced mouse B-lymphocytes proliferation; type: toxicity, cell-based

Compound | IC50 (Splenocyte [1]) [µM] | IC50 (Splenocyte [2]) | Activity (Splenocyte [3]) | IC50 (MCF7) [µM] | CC50 [4] [µM] | CC50 [5] [µM] | selectivity ratio [6] | selectivity ratio [7]
COc1ccc(CCC(C)(C)O)c2c1C(=O)C1C(O)=C3C(=CC1O2)O[C@H]1OC=C[C@@]31O (stereo partly drawn) | 1 | 8.4 µM | Dose-Dependent Effect | 0.46 | 14 | 14 | 14 | 1.7
COC1=C2C(=CC3Oc4c(CCC(C)(C)O)ccc(O)c4C(=O)C13)O[C@H]1OC=C[C@@H]21 (stereo partly drawn) | 4 | 5.8 µM | – | 0.46 | 17 | 17 | 4.3 | 2.9
CC(C)=CCc1ccc(O)c2c1OC1C=C3O[C@H]4OC=C[C@@]4(O)C3=C(O)C1C2=O (stereo partly drawn) | 14 | 16 µM | – | – | 15 | 15 | 1.1 | 0.94
COC1=C2C(=CC3Oc4cccc(O)c4C(=O)C13)O[C@H]1OC=C[C@@]21O (stereo partly drawn) | > 40 | > 40 µM | – | – | > 40 | > 40 | – | –
C[C@]12CCC[C@H](O1)c1c(cc3c(c1O)C(=O)c1c(O)cc(O)cc1C3=O)O2 | 4.8 | 22 µM | – | – | > 40 | > 40 | > 8.3 | > 1.8
CC(C)(O)CCc1ccc(O)c2c1OC1C=C3O[C@H]4OCC[C@H]4C3=C(O)C1C2=O (stereo partly drawn) | 1 | 3.6 µM | – | – | 5.2 | 5.2 | 5.2 | 1.4
CO[C@@H]1C[C@@]2(O)C3=C(O)C4C(=O)c5c(O)ccc(CCC(C)(C)O)c5OC4C=C3O[C@H]2O1 (stereo partly drawn) | 1.3 | 3.8 µM | – | – | 7.7 | 7.7 | 5.9 | 2
CC(C)(O)CCc1ccc(O)c2c(=O)c3c(O)c4c(cc3oc12)O[C@H]1OC=C[C@@]41O [AUSTOCYSTIN D] | 1.6 | 4 µM | – | 0.46 | 7.8 | 7.8 | 4.9 | 2
COc1cc(OC)c2c(c1)C(=O)C1C=C3O[C@@]4(C)CC[C@H](O)[C@H](O4)C3=C(O)C1C2=O (stereo partly drawn) | > 40 | 7 µM | – | – | > 40 | > 40 | – | > 5.7
CC(C)(O)C[C@H](O)c1ccc(O)c2c1OC1C=C3O[C@H]4OC=C[C@@]4(O)C3=C(O)C1C2=O (stereo partly drawn) | 0.93 | 12 µM | Dose-Dependent Effect | 0.46 | 16 | 16 | 17 | 1.3
CO[C@H]1C[C@@]2(O)C3=C(O)C4C(=O)c5c(O)ccc(CCC(C)(C)O)c5OC4C=C3O[C@H]2O1 (stereo partly drawn) | 1.2 | 4.3 µM | – | – | 8.9 | 8.9 | 7.4 | 2.1
COC1=C2C(=CC3Oc4ccc(Cl)c(OC)c4C(=O)C13)O[C@H]1O[C@H](OC)C[C@@H]21 (stereo partly drawn) | 11 | 5.1 µM | – | – | > 40 | > 40 | > 3.6 | > 7.8
O=C1c2c(O)cccc2OC2C=C3O[C@H]4OC=C[C@@]4(O)C3=C(O)C12 (stereo partly drawn) | 9.4 | > 40 µM | – | – | > 40 | > 40 | > 4.2 | –
CCCCC[C@H](O)c1c(O)cc2c(c1O)C(=O)C1C(O)=CC(O)=CC1C2=O (stereo partly drawn) | > 40 | 17 µM | – | – | > 40 | > 40 | – | > 2.4
CCCCC[C@H](OC)c1c(O)cc2c(c1O)C(=O)C1C(O)=CC(O)=CC1C2=O (stereo partly drawn) | > 40 | > 40 µM | – | – | > 40 | > 40 | – | –
COC1=C2C(=CC3Oc4ccc(Cl)c(OC)c4C(=O)C13)O[C@H]1O[C@H](OC(C)=O)C[C@@H]21 (stereo partly drawn) | 16 | 20 µM | – | – | 28 | 28 | 1.8 | 1.4
COc1c(Cl)ccc2c1C(=O)C1C(O)=C3C(=CC1O2)O[C@H]1OC=C[C@@]31O (stereo partly drawn) | > 40 | > 40 µM | – | – | > 40 | > 40 | – | –
CO[C@H]1C[C@H]2C3=C(O)C4C(=O)c5c(O)ccc(CCC(C)(C)O)c5OC4C=C3O[C@H]2O1 (stereo partly drawn) | 1.1 | 7.9 µM | Dose-Dependent Effect | – | 15 | 15 | 14 | 1.9
COc1c(C)c2c(c(O)c1C/C=C(\C)CCC(=O)OCCN1CCOCC1)C(=O)OC2 [MYCOPHENOLATE MOFETIL] | – | 0.21 µg/mL | – | – | – | – | – | –
CO[C@@H]1C[C@H]2C3=C(O)C4C(=O)c5c(O)ccc(CCC(C)(C)O)c5OC4C=C3O[C@H]2O1 (stereo partly drawn) | 2.1 | 4.8 µM | – | – | 12 | 12 | 5.7 | 2.5
COC1=C2C(=CC3Oc4c(OC)cc(Cl)c(OC)c4C(=O)C13)O[C@H]1O[C@@H](O)C[C@@H]21 (stereo partly drawn) | 11 | 10 µM | – | – | 31 | 31 | 2.8 | 3.1
COC1=C2C(=CC3Oc4c(OC)cc(Cl)c(OC)c4C(=O)C13)O[C@H]1OC=C[C@@H]21 (stereo partly drawn) | 7.1 | 13 µM | – | – | 12 | 12 | 1.7 | 0.92
CC(C)(O)C[C@H](O)c1ccc(O)c2c1OC1C=C3O[C@H]4OC=C[C@H]4C3=C(O)C1C2=O (stereo partly drawn) | 1.2 | 7.5 µM | – | 0.46 | 8.1 | 8.1 | 6.8 | 1.1
COC1=C2C(=CC3Oc4ccc(Cl)c(OC)c4C(=O)C13)O[C@H]1O[C@@H](OC)C[C@@H]21 (stereo partly drawn) | 27 | 11 µM | – | – | > 40 | > 40 | > 1.5 | > 3.6
